From patent US20210361731A1 (Phenolics, LLC, priority 2020, published 2021)
Blank lines part the entries; values can stand above or below the compound they belong to.

Tests used:
[1] = test system: vegetarian subjects; conditions: 5 g/day for six weeks; cited from earlier work
[2] = test system: patients with dementia disorders; conditions: 1570 patients in 10 studies; cited from earlier work
[3] = test system: cognitive impairment due to Alzheimer's disease; conditions: 400 mg capsules three times daily; cited from earlier work
[4] = test system: rats; conditions: 250 mg/kg injections for three weeks, three weeks after pilocarpine; cited from earlier work
[5] = test system: Caco2 monolayer; assay: Permeability of α-GPC through a Caco2 monolayer in the presence and absence of blueberry polyphenol extract; assay type: in vitro ADME; design: cumulative L-α-GPC, averaged over runs: scale not given here; conditions: for cumulative L-α-GPC, averaged over runs: average of runs 1 and 2; for cumulative L-α-GPC: 5 mM α-GPC in DPBS alone or with 1 mg/ml blueberry polyphenol extract
Procedure: In another series of experiments, the permeability of α-GPC through a Caco2 monolayer was measured to determine whether the presence of a blueberry-based polyphenol extract affected permeability.
More particularly, donor GPC concentrations were reduced to 5 mM. […] This experiment consisted of two independent runs (as identified below as run 1 and run 2). […] The data from the runs is summarized in Table 2, illustrated in FIG. 2 (Total Alpha GPC permeability through a Caco2 monolayer) and averaged below in Table 3. The averaged data is illustrated in FIG. 3. In each of the graphs, the vertical axis units are cumulative L-α-GPC in μg/cm2 and the horizontal axis units are minutes.

[6] = test system: brain aging; conditions: 1 g daily, 12 weeks; cited from earlier work
[7] = 100-300 mg/day; cited from earlier work
[8] = test system: patients with probable senile dementia of Alzheimer's type; conditions: cited from earlier work
[9] = test system: hippocampus of the rats; conditions: cited from earlier work

Structure (SMILES): CN(CC(=O)O)C(=N)N [creatine]
working memory and intelligence [1]: Positive results

effect of α-GPC on permeation of the blueberry polyphenols through the Caco2 monolayer [5]: did not significantly change | cumulative L-α-GPC, averaged over runs ([5]; 15 min): 0.128 μg/cm2 | cumulative L-α-GPC, averaged over runs ([5]; 30 min): 0.471 μg/cm2 | cumulative L-α-GPC, averaged over runs ([5]; 45 min): 0.643 μg/cm2 | cumulative L-α-GPC, averaged over runs ([5]; 60 min): 0.815 μg/cm2 | cumulative L-α-GPC, averaged over runs ([5]; 75 min): 1.017 μg/cm2 | cumulative L-α-GPC, averaged over runs ([5]; 90 min): 1.292 μg/cm2 | cumulative L-α-GPC ([5]; run 1, 15 min): 18.75 μg/cm2 | cumulative L-α-GPC ([5]; run 1, 30 min): 41.37 μg/cm2 | cumulative L-α-GPC ([5]; run 1, 45 min): 67.92 μg/cm2 | cumulative L-α-GPC ([5]; run 1, 60 min): 103.2 μg/cm2 | cumulative L-α-GPC ([5]; run 1, 75 min): 150.0 μg/cm2 | cumulative L-α-GPC ([5]; run 1, 90 min): 222.4 μg/cm2 | cumulative L-α-GPC ([5]; run 2, 15 min): 47.16 μg/cm2 | cumulative L-α-GPC ([5]; run 2, 30 min): 200.9 μg/cm2 | cumulative L-α-GPC ([5]; run 2, 45 min): 262.8 μg/cm2 | cumulative L-α-GPC ([5]; run 2, 60 min): 316.1 μg/cm2 | cumulative L-α-GPC ([5]; run 2, 75 min): 373.3 μg/cm2 | cumulative L-α-GPC ([5]; run 2, 90 min): 442.1 μg/cm2
Structure (SMILES): C[N+](C)(C)CCOP(=O)([O-])OC[C@H](O)CO [α-GPC, Alpha-glycerylphosphorylcholine]
patient clinical results, cognitive symptoms of adult-onset dementia disorders [2]: improved patient clinical results | treatment of the cognitive symptoms of Alzheimer's disease [3]: useful | cognitive function [4]: improved | neurogenesis [4]: increased | clinical response in brain aging [6]: slower but more sustained | memory, concentration, and focus [7]: helps maintain and improve | peak power and force output during strenuous exercises [7]: helps to increase | improvements compared with the ST200 patients ([8]; ST200 1000 mg morning and 500 mg afternoon): significantly better | intellectual and emotional impairments ([8]; oral 800 mg morning and 400 mg afternoon, six months): significantly improved | acetylcholine release in the hippocampus ([9]; 75 mg/kg i.g.): able to increase acetylcholine release | dose with maximum effect on acetylcholine release ([9]; i.g.): 300 mg/kg

Structure (SMILES): NC(=O)CN1CC(O)CC1=O (centres unmarked) [oxiracetam]
clinical response in brain aging [6]: early improvement which was maintained during the therapy but was rapidly attenuated after discontinuation of the therapy
